Measurements from the supplement of paper PMC10307832.

Assays:
Assay in all cases: relative viability (nuclei count vs DMSO), 5 days (fraction); higher = more cells survive
Bleomycin + Trametinib = compound: CC1=C(N=C(N=C1N)[C@H](CC(=O)N)NC[C@@H](C(=O)N)N)C(=O)N[C@@H]([C@H](C2=CN=CN2)OC3C(C(C(C(O3)CO)O)O)OC4C(C(C(C(O4)CO)O)OC(=O)N)O)C(=O)N[C@H](C)[C@H]([C@H](C)C(=O)N[C@@H]([C@@H](C)O)C(=O)NCCC5=NC(=CS5)C6=NC(=CS6)C(=O)NCCC[S+](C)C)O [Bleomycin] + CC(=O)Nc1cccc(-n2c(=O)n(C3CC3)c(=O)c3c(Nc4ccc(I)cc4F)n(C)c(=O)c(C)c32)c1 [Trametinib] (partner 0.02 µM); conditions: main component drawn
Method in brief: (§1)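 Each reported value is a median over duplicate plates. It expresses relative viability: treated-well nuclei count divided by vehicle-well nuclei count. Lung cancer cell lines in 1536-well plates were dosed by pin tool a day after seeding, alone with one drug or with a fixed anchor-drug dose plus five library-drug doses (not always all listed) in √10 steps, and nuclei were counted after 5 days.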

Bleomycin + Phenformin = compound: CC1=C(N=C(N=C1N)[C@H](CC(=O)N)NC[C@@H](C(=O)N)N)C(=O)N[C@@H]([C@H](C2=CN=CN2)OC3C(C(C(C(O3)CO)O)O)OC4C(C(C(C(O4)CO)O)OC(=O)N)O)C(=O)N[C@H](C)[C@H]([C@H](C)C(=O)N[C@@H]([C@@H](C)O)C(=O)NCCC5=NC(=CS5)C6=NC(=CS6)C(=O)NCCC[S+](C)C)O [Bleomycin] + N=C(N)NC(=N)NCCc1ccccc1 [Phenformin] (partner 250 µM); conditions: main component drawn
Method in brief: as §1

Bleomycin + Alpelisib = compound: CC1=C(N=C(N=C1N)[C@H](CC(=O)N)NC[C@@H](C(=O)N)N)C(=O)N[C@@H]([C@H](C2=CN=CN2)OC3C(C(C(C(O3)CO)O)O)OC4C(C(C(C(O4)CO)O)OC(=O)N)O)C(=O)N[C@H](C)[C@H]([C@H](C)C(=O)N[C@@H]([C@@H](C)O)C(=O)NCCC5=NC(=CS5)C6=NC(=CS6)C(=O)NCCC[S+](C)C)O [Bleomycin] + Cc1nc(NC(=O)N2CCC[C@H]2C(N)=O)sc1-c1ccnc(C(C)(C)C(F)(F)F)c1 [Alpelisib] (partner 2 µM); conditions: main component drawn
Method in brief: as §1

Etoposide + Vorinostat = compound: COc1cc([C@@H]2c3cc4c(cc3[C@@H](O[C@@H]3O[C@@H]5CO[C@@H](C)O[C@H]5[C@H](O)[C@H]3O)[C@H]3COC(=O)[C@H]23)OCO4)cc(OC)c1O [Etoposide] + O=C(CCCCCCC(=O)Nc1ccccc1)NO [Vorinostat] (partner 1 µM)
Method in brief: as §1

Row | Cell Line | relative viability (Bleomycin + Trametinib; first compound 0.01 µM) | relative viability (Bleomycin + Trametinib; first compound 0.03162 µM) | relative viability (Bleomycin + Trametinib; first compound 0.1 µM) | relative viability (Bleomycin + Trametinib; first compound 0.3162 µM) | relative viability (Bleomycin + Trametinib; first compound 1 µM) | relative viability (Bleomycin + Phenformin; first compound 0.01 µM) | relative viability (Bleomycin + Phenformin; first compound 0.03162 µM) | relative viability (Bleomycin + Phenformin; first compound 0.1 µM) | relative viability (Bleomycin + Phenformin; first compound 0.3162 µM) | relative viability (Bleomycin + Phenformin; first compound 1 µM) | relative viability (Bleomycin + Alpelisib; first compound 0.01 µM) | relative viability (Bleomycin + Alpelisib; first compound 0.03162 µM) | relative viability (Bleomycin + Alpelisib; first compound 0.1 µM) | relative viability (Bleomycin + Alpelisib; first compound 0.3162 µM) | relative viability (Bleomycin + Alpelisib; first compound 1 µM) | relative viability (Etoposide + Vorinostat; first compound 0.01 µM) | relative viability (Etoposide + Vorinostat; first compound 0.03162 µM) | relative viability (Etoposide + Vorinostat; first compound 0.1 µM) | relative viability (Etoposide + Vorinostat; first compound 0.3162 µM) | relative viability (Etoposide + Vorinostat; first compound 1 µM)
1 | NCI-H661 | 0.546 | 0.484 | 0.477 | 0.392 | 0.292 | 0.272 | 0.239 | 0.232 | 0.216 | 0.215 | 0.439 | 0.66 | 0.411 | 0.247 | 0.196 | 0.759 | 0.841 | 0.706 | 0.476 | 0.382
2 | NCI-H727 | 0.376 | 0.321 | 0.392 | 0.404 | 0.406 | 0.65 | 0.621 | 0.469 |  | 0.502 | 0.499 | 0.529 | 0.491 | 0.293 | 0.308 | 1.16 | 1.47 | 0.873 | 1.12 | 0.96
3 | NCI-H838 | 0.432 | 0.246 | 0.186 | 0.154 | 0.118 | 0.381 | 0.297 | 0.185 | 0.188 | 0.153 | 0.674 | 0.29 | 0.238 | 0.161 | 0.212 | 0.74 | 0.67 | 0.69 | 0.538 | 0.267
4 | NCI-H1355 | 0.415 | 0.385 | 0.482 | 0.317 | 0.198 | 0.432 | 0.487 | 0.429 | 0.27 | 0.194 | 0.777 | 0.935 | 0.802 | 0.566 | 0.323 | 0.635 | 0.687 | 0.392 | 0.461 | 0.272
5 | NCI-H1395 | 0.753 | 0.822 | 0.714 | 0.482 | 0.404 | 0.404 | 0.411 | 0.456 | 0.325 | 0.351 | 0.817 | 0.812 | 0.669 | 0.9 | 0.382 | 0.659 | 0.905 | 0.509 | 0.54 | 0.502
6 | NCI-H1437 | 0.475 | 0.411 | 0.678 | 0.439 | 0.276 | 0.248 | 0.283 | 0.287 | 0.229 | 0.212 | 0.799 | 0.922 | 0.83 | 0.406 | 0.396 | 0.871 | 0.877 | 0.804 | 0.435 | 0.396
7 | NCI-H1651 | 0.818 | 0.712 | 0.714 | 0.368 | 0.223 | 0.314 | 0.298 | 0.303 | 0.17 | 0.189 | 0.708 | 0.71 | 0.733 | 0.236 | 0.174 | 0.602 | 0.65 | 0.399 | 0.387 | 0.189
8 | NCI-H1666 | 0.717 | 0.783 | 0.76 | 0.533 | 0.581 | 0.528 | 0.516 | 0.494 | 0.344 | 0.302 | 0.711 | 0.708 | 0.625 | 0.264 | 0.354 | 0.94 | 0.933 | 0.918 | 0.632 | 0.549
9 | NCI-H1734 | 0.518 | 0.537 | 0.397 | 0.263 | 0.163 | 0.327 | 0.28 | 0.28 | 0.177 | 0.131 | 0.626 | 0.519 | 0.514 | 0.27 | 0.216 | 0.701 | 0.929 | 0.514 | 0.458 | 0.219
10 | NCI-H1755 | 0.734 | 0.726 | 0.78 | 0.665 | 0.61 | 0.562 | 0.589 | 0.593 | 0.507 | 0.39 | 0.939 | 0.93 | 0.906 | 0.658 | 0.58 | 0.748 | 0.896 | 0.694 | 0.743 | 0.474
11 | NCI-H1793 | 0.442 | 0.413 | 0.382 | 0.262 | 0.194 | 0.389 | 0.417 | 0.349 | 0.211 | 0.131 | 0.695 | 0.783 | 0.612 | 0.171 | 0.176 |  | 0.934 | 0.353 | 0.427 | 0.151
12 | NCI-H1915 | 0.282 | 0.295 | 0.215 | 0.165 | 0.128 | 0.301 | 0.301 | 0.254 | 0.15 | 0.14 | 0.896 | 0.888 | 0.68 | 0.325 | 0.167 | 0.511 | 0.616 | 0.426 | 0.477 | 0.418
13 | NCI-H1944 | 0.319 | 0.255 | 0.276 | 0.234 | 0.165 | 0.145 | 0.144 | 0.141 | 0.116 | 0.102 | 0.627 | 0.518 | 0.506 | 0.288 | 0.179 | 0.532 | 0.532 | 0.334 | 0.282 | 0.147
14 | NCI-H1975 | 0.326 | 0.284 | 0.327 | 0.226 | 0.152 | 0.322 | 0.316 | 0.253 | 0.162 | 0.123 | 0.607 | 0.616 | 0.555 | 0.254 | 0.232 | 0.726 | 0.728 | 0.739 | 0.476 | 0.328
